# Experiments:
# [1] = tested on: morningglory; test: Test A pre-/postemergence herbicide test; format: in vivo, Ipomoea spp.
# How it was run: (§1)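 Visual injury rating on a 0–100 scale (0 no effect, 100 complete control) versus untreated controls, about ten days after treatment in greenhouse. Pre: directed soil spray onto seeded sandy loam. Post: spray to runoff on plants 2–10 cm tall at one- to two-leaf stage.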
# [2] = tested on: redroot pigweed; test: Test A pre-/postemergence herbicide test; format: in vivo, Amaranthus retroflexus
# How it was run: as §1
# [3] = tested on: Surinam grass; test: Test B pre-/postemergence herbicide test; format: in vivo, Urochloa decumbens
# How it was run: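 Greenhouse pot assay with simultaneous preemergence (treated seed) and postemergence (2–18 cm seedlings) applications of surfactant-containing, non-phytotoxic solvent formulations. Response scored visually 13–15 days later on a 0–100 scale, 100 meaning complete control.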
# [4] = tested on: wheat; test: Test B postemergence herbicide test; format: in vivo, Triticum aestivum; parameters: key to Wheat plant response rating: 0 = no effect, 100 = complete control
# How it was run: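 Visual ratings, 0 (no effect) to 100 (complete control), made versus controls after 13–15 d greenhouse. Paddy plants treated at 2-leaf stage; postemergence plants at 1- to 4-leaf stage, 2–18 cm tall.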
# [5] = tested on: Surinam grass; test: Test C pre-/postemergence herbicide test; format: in vivo, Urochloa decumbens; details: preemergence
# How it was run: (§2)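 Pre- and postemergence application, solvent/surfactant formulation; post at 1- to 4-leaf stage (2–18 cm). Greenhouse 12–14 d. Visual rating vs controls, 0 = no effect, 100 = complete control.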
# [6] = tested on: goosegrass; test: Test C pre-/postemergence herbicide test; format: in vivo, Eleusine indica; details: preemergence
# How it was run: as §2
# [7] = tested on: eastern black nightshade; test: Test C pre-/postemergence herbicide test; format: in vivo, Solanum ptycanthum; details: preemergence
# How it was run: as §2
# [8] = tested on: common ragweed; test: Test C pre-/postemergence herbicide test; format: in vivo, Ambrosia elatior; parameters: key to Plant response rating, Ragweed: 0 = no effect, 100 = complete control; details: preemergence
# How it was run: as §2
# [9] = Postemergence, 500 g ai/ha, 0 to 100 scale, 0 no effect, 100 complete control
# [10] = Postemergence, 2000 g ai/ha, 0 to 100 scale, 0 no effect, 100 complete control
# [11] = Preemergence, 2000 g ai/ha, visual rating, 0 to 100 scale (0 no effect, 100 complete control)
# [12] = preemergence, 500 g ai/ha, visual injury, 0 to 100 scale (0 no effect, 100 complete control)
# [13] = Postemergence, 500 g ai/ha, scale 0 (no effect) to 100 (complete control)
# [14] = postemergence, 125 g ai/ha, scale 0 to 100
# [15] = 500 g ai/ha, scale 0 to 100 (0 no effect, 100 complete control), visual, 12 to 14 days
smiles,measurement,setting,value
CCc1nn(C(C)(C)C)nc1C(=O)Nc1cccc(C(=O)NC2CC2)c1 [Compound 417],Morningglory plant response rating,[1]; [9],70
same,"Plant response rating, Morningglory",[1]; [10],85
same,Morningglory plant response rating,[1]; [11],80
same,Morningglory plant response rating,[1]; [12],20
same,Pigweed plant response rating,[2]; [9],100
same,"Plant response rating, Pigweed",[2]; [10],100
same,Pigweed plant response rating,[2]; [11],100
same,Pigweed plant response rating,[2]; [12],95
same,"Plant response rating (0 to 100 scale), Surinam Grass","[3]; 125 g ai/ha, 0 is no effect, 100 is complete control, preemergence",80
same,Surinam Grass plant response rating,[3]; [13],30
same,Surinam Grass plant response rating,[3]; [14],10
same,Wheat plant response rating,"[4]; 500 g ai/ha, scale 0 to 100, 0 no effect, 100 complete control, preemergence",90
same,Wheat plant response rating,[4]; [13],20
same,Wheat plant response rating,[4]; [14],10
same,"Plant response rating, Surinam Grass","[5]; 62 g ai/ha, scale 0 to 100",0
same,"Plant response rating (0 = no effect, 100 = complete control), Surinam Grass",[5]; 125 g ai/ha,75
same,"Plant response rating, Surinam Grass",[5]; [15],95
same,"Plant response rating, Goosegrass","[6]; 62 g ai/ha, scale 0 to 100",95
same,"Plant response rating (0 = no effect, 100 = complete control), Goosegrass",[6]; 125 g ai/ha,100
same,"Plant response rating, Goosegrass","[6]; 250 g ai/ha, scale 0-100",100
same,"Plant response rating, Goosegrass",[6]; [15],100
same,"Plant response rating, Nightshade","[7]; 62 g ai/ha, scale 0 to 100",55
same,"Plant response rating (0 = no effect, 100 = complete control), Nightshade",[7]; 125 g ai/ha,60
same,"Plant response rating, Nightshade",[7]; [15],95
same,"Plant response rating, Ragweed","[8]; 62 g ai/ha, scale 0 to 100",0
same,"Plant response rating (0 = no effect, 100 = complete control), Ragweed",[8]; 125 g ai/ha,20
same,"Plant response rating, Ragweed",[8]; [15],90
